Measured values as given in US5854036A, “Sesquiteterpenic dervatives” (Gruppo Lepetit S.p.A., priority 1994, dated 1998).
“Also recorded” adds a separate entry of the source. Each block holds one molecule with its values, some of them ahead of it.

How the values were obtained:
inositol monophosphatase = settings: literature statement; cited from earlier work
[1] = biological target: T1, inositol monophosphatase (EC 3.1.3.25) (Bos taurus, UniProt P20456); experiment: inhibition of inositol monophosphatase (IMPase, EC 3.1.3.25); phosphate liberated from 4 mM 2-glycerolphosphate, molybdate coloration; format: biochemical, animal; settings: for IC50: Table 1, pH 7.5, 4 mM 2-glycerolphosphate, 5 ug/ml IMPase, 30 minutes, read-out: IC50 (amount of inhibitor required to inhibit the enzyme activity by 50%) (converted)
T1 construct: host or cells: animal brain or recombinant E. coli expressing animal IMPase
T1 sequence (P20456 1-277): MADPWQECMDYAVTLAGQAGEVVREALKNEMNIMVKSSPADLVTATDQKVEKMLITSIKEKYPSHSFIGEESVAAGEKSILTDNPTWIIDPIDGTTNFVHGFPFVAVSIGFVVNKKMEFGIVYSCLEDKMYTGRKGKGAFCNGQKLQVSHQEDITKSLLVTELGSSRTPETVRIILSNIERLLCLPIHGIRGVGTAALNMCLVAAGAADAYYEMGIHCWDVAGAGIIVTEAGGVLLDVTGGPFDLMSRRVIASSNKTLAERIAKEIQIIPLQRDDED
Excerpt: For determining said activity, IMPase with a purity higher than 90% as judged by SDS-PAGE (sodium dodecyl sulphate polyacrylamide gel electrophoresis) is purified as described in P. D. Pelton and A. J.
Ganzhorn, Journal Biolog. Chem., 267, 1992, pp. 5916-5920. The enzyme can be purified from animal brain or from recombinant E. coli strains expressing animal IMPase. Although crude enzyme preparations can also be used it is preferable to use purified enzyme. The purified enzyme routinely has a specific activity of 25 μmol of Pi/min/mg of protein as determined in a standard assay (P. V. Attwood et al., Biochem. Jour., 1988, 253, pp. 387-394) with 4 mH 2-glycerolphosphate as substrate.
The enzyme activity may be determined according to A. J. Ganzhorn and M. C. Chanal, Biochem., 1990, 29; the reaction mixture contains 50mM Tris-HCl, pH 7.5, 2 mM magnesium chloride and 0.1 mM EGTA. Then, 5 ug/ml of IMPase and 4 mM of 2-glycerolphosphate substrate are added to the reaction mixture; alternatively, it is also possible to add the substrate directly into the reaction mixture, before adding the enzyme.
The reaction is considered terminated after 30 minutes from the addition of the substrate or the enzyme (depending on which one is added later); the liberated phosphate is determined by molybdate coloration (P. V. Attwood et al., Biochem. Jour., 1988, 253, pp. 387-394) at 350 nm with a Shimadzu spectrophotometer UV 2100.
The enzyme reaction is performed either in the absence or in the presence of various concentrations of 6'β-Stachybotrydial or MDL63394 to determine the amount of inhibitor required to inhibit the enzyme activity by 50% (IC50); the results are reported in Table 1, compared with the activity of L-671,776.

complement system = settings: literature statement; cited from earlier work
[2] = test system: manic symptoms / bipolar disorder; settings: cited from earlier work
[3] = cited from earlier work

IC50 [1]: 463 µM
Molecule: CC1CCC2C(C)(C)C(O)CCC2(C)C12Cc1c(O)cc(CO)c(C=O)c1O2 [L-671,776]
IMPase-inhibiting activity (inositol monophosphatase): shows the above IMPase-inhibiting activity

Molecule: C[C@@H]1CCC2C(C)(C)[C@H](O)C(O)C[C@]2(C)[C@@]12Cc1c(O)cc(C=O)c(C=O)c1O2 (stereo partly shown) [K-76]
inhibitor of the complement system (complement system): inhibitor of the complement system

IC50 [1]: 64.7 µM
inhibitory activity against the enzyme inositol monophosphatase ([1]; qualitative statement): show inhibitory activity
Molecule: C[C@@H]1CCC2C(C)(C)[C@@H](O)CC[C@]2(C)[C@@]12Cc1c(O)cc(C=O)c(C=O)c1O2 (stereo partly drawn) [6'β-Stachybotrydial]

Molecule: lithium
time to exert antimanic effect ([2]; acute bipolar disorder): 7 to 10 days
antimanic / prophylactic effect ([2]; manic patients): highly specific in alleviating manic symptoms; also recorded: clear prophylaxis against disease recurrences and deterioration has been demonstrated
adverse effects ([3]; lithium therapy): can cause a transient leukocytosis, can cause patients with a borderline thyroid reserve to become clinically hypothyroid, and can decompensate cardiac status due to shifts in fluids and electrolytes; also recorded: Structural lesions in kidney, such as interstitial fibrosis, tubular atrophy and glomerular sclerosis; also recorded: tremor, weight gain, diarrhea and skin rash
occurrence of polyuria-polydipsia syndrome ([3]; treated patients): up to 60%
IMPase-inhibiting activity (inositol monophosphatase): inhibits the activity of said enzyme
